US11331327B2, “Antibacterial use of halogenated salicylanilides” (UNION therapeutics A/S, priority 2014, dated 2022)
Marks after values point to notes of the source that are not given here.

Test system: MRSA 01, MRSA 15, MRSA 16
Experiment: Mutational frequency evaluation, Example 1
Assay type: cell-based, Staphylococcus aureus
Details: for Resistance mutation rate at MIC × 1: tested against one strain: MRSA 01
Experimental: Adequate dilutions were plated on plates without the compound.
Viable cell growth was enumerated after 48 hours of incubation at 37° C.
Ten replicates were carried out for each strain and fusidic acid, mupirocin and retapamulin were used as controls for the MRSA 01 strain.

| Structure (SMILES) | Resistance mutation rate at MIC × 1 | mutational frequency at MIC×1 (text summary of Table 4) |
| --- | --- | --- |
| CC(=O)O[C@H]1C[C@@]2(C)[C@@H](C[C@@H](O)[C@H]3[C@@]4(C)CC[C@@H](O)[C@@H](C)[C@@H]4CC[C@@]32C)/C1=C(\CCC=C(C)C)C(=O)O [Fusidic acid] | ≥4 × 10^−5* |  |
| C/C(=C\C(=O)OCCCCCCCCC(=O)O)C[C@@H]1OC[C@H](C[C@@H]2O[C@H]2[C@@H](C)[C@H](C)O)[C@@H](O)[C@H]1O [Mupirocin] | ≥4 × 10^−5* |  |
| O=C(Nc1ccc([N+](=O)[O-])cc1Cl)c1cc(Cl)ccc1O [Niclosamide, 5-chloro-N-(2-chloro-4-nitrophenyl)-2-hydroxybenz-amide] |  | < 4×10^−10 |
| C=C[C@]1(C)C[C@@H](OC(=O)CS[C@@H]2C[C@H]3CC[C@@H](C2)N3C)[C@]2(C)[C@H](C)CC[C@]3(CCC(=O)[C@H]32)[C@@H](C)[C@@H]1O [Retapamulin] | ≥4 × 10^−5* |  |
